Data as given in patent publication US20250313528A1, “NOVEL COMPOUND AND PHARMACEUTICAL COMPOSITION FOR PREVENTING OR TREATING PULMONARY FIBROSIS COMPRISING SAME AS ACTIVE INGREDIENT” (GIL MEDICAL CENTER, priority 2022, published 2025).

Legend:
Format in all cases: cell-based, human
fibronectin and α-SMA [1] = test: Western blotting of fibrosis-related proteins in TGF-β1-induced MRC-5 cells; details: MRC-5, TGF-β1 1 ng/ml, 10 μM, FIG. 4b
Description: Since the overexpression of extracellular matrix components such as fibronectin and α-SMA serves as an indicator of fibrotic changes in tissues, MRC-5 cells induced to undergo fibrosis by TGF-β1 were treated with each compound at different concentrations to compare the expression levels of fibronectin and α-SMA.
(§1) Specifically, to extract fibronectin and α-SMA proteins, the cells were washed once with cold PBS and then RIPA buffer (150 mM NaCl, 0.5% Triton X-100, 50 mM Tris-HCl, pH 7.4, 25 mM NaF, 20 mM EGTA), which was added with a protease inhibitor cocktail, was added thereto to lyse the cells. Then, the proteins were quantified using a BCA protein assay kit. All protein samples were subjected to electrophoresis at 10 μg on 8% to 10% PAGE gels and then transferred to 0.2 μm PVDF membranes (EMD Millipore, MA, USA). The membranes to which the protein was transferred were blocked with 5% BSA or 5% skim milk for 1 hour, and then primary antibodies were added thereto and incubated overnight at 4° C. The following day, the membranes were washed three times with PBST, and then HRP-conjugated secondary antibodies were added and reacted at room temperature for 1 hour. The PVDF membranes prepared through such procedures were smeared with ECL (Luminata™ Crescendo, EMD Millipore) and exposed to a fluorescence reader to confirm the level of protein expression.
The specific experimental methods are the same as in Example 2, and sulforaphane was treated at a concentration of 20 μM, Compound 1 at 5 μM, 10 μM, and 20 μM, and Compound 2 at 2.5 μM, 5 μM, and 10 μM, respectively.
(§2) To compare the changes in fibrosis-related protein expression by treating normal MRC-5 and diseased DHLF-IPF cell lines induced with pulmonary fibrosis by TGF-β1 with SFN and the two candidate compounds, Western blotting was performed.
(§3) The specific experimental methods are the same as in Example 2. TGF-β1 was treated at 1 ng/ml to induce fibrosis, and sulforaphane and the two compounds each were treated at a concentration of 10 μM.

fibronectin and α-SMA [2] = test: Western blotting of fibrosis-related proteins in TGF-β1-induced DHLF-IPF cells; details: TGF-β1 1 ng/ml, 10 μM, FIG. 4b
Description: as §1, §2, §3

FN, COL1A1, and α-SMA [3] = test: qRT-PCR of fibrosis-related genes in TGF-β1-induced MRC-5 cells; details: MRC-5, 10 μM pretreatment 1 hour, TGF-β1 1 ng/ml 48 hours, FIG. 4c/4d
Description: (§4) MRC-5 and DHLF-IPF cells were each cultured in growth medium, and the medium was removed. […] The medium was then removed, and the cells were washed once with PBS. Intracellular total RNA was extracted from the cultured cells using TRIzol reagent (TaKaRa Bio Inc., Japan) for gene expression analysis. 1 mL of TRIzol reagent was added to lyse the cells and denature the tissue. The lysate was transferred to each 1.5 mL tube, and 200 μL of chloroform was added thereto, followed by vortexing for 20 seconds to ensure complete mixing. After incubating at room temperature for 15 minutes, the mixture was centrifuged at 14,000 rpm for 20 minutes to obtain the supernatant. After adding an equal volume of isopropyl alcohol, the tubes were inverted and incubated at room temperature for 10 minutes. The sample was centrifuged at 14,000 rpm for 15 minutes to obtain an RNA pellet, which was washed by centrifugation with 70% ethanol for use on RNA at 14,000 rpm for 5 minutes, and dried for 5 minutes. The dried RNA sample was added with 20 μL of distilled water treated with 0.1% diethyl pyrocarbonate (DEPC) to dissolve the pallet and the resultant was used as a sample for cDNA synthesis. 1 μL of the same was used to measure the RNA concentration and purity at O.D. 260/280 nm using a Nanodrop.
(§5) Single-stranded cDNA synthesis was performed by mixing 1 μg of the extracted total RNA with 1 μL of oligo-d(T) primer ([…]) and 10 mM dNTP (TaKaRa Bio Inc., Japan), reacting at 65° C. for 5 minutes, followed by rapid cooling. To this template, 4 μL of 5×RT buffer, 0.5 μL of RNA inhibitor, and 100 units of RTase (TaKaRa Bio Inc., Japan) were added, and the total volume was adjusted to 20 μL using DEPC-treated distilled water. […]
(§6) Each gene expression level was measured using real-time PCR. […] The specificity of the amplified product was confirmed through melting curve analysis, and the target genes were quantified and compared using GAPDH as a control gene.

FN, COL1A1, and α-SMA [4] = test: qRT-PCR of fibrosis-related genes in TGF-β1-induced DHLF-IPF cells; details: 10 μM pretreatment 1 hour, TGF-β1 1 ng/ml 48 hours, FIG. 4c/4d
Description: as §4, §5, §6

C[S+]([O-])CCCCN=C=S (stereo not shown) [sulforaphane, reference compound]
reduced: expression levels of fibronectin and α-SMA protein (fibronectin and α-SMA [1]) | expression levels of fibronectin and α-SMA protein (fibronectin and α-SMA [2]) | gene expression levels of FN, COL1A1, and α-SMA (FN, COL1A1, and α-SMA [3]) | gene expression levels of FN, COL1A1, and α-SMA (FN, COL1A1, and α-SMA [4])
